PubChem BioAssay AID2060328 (Molecular Pharmacology Branch, DTP, NCI, 2025)

Tested on: MDA-MB-231 multicell spheroids, viability (%T/C)
Assay: Anticancer human tumor MDA-MB-231 cell line growth inhibition [IpAb];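 further: viability read after seven days of drug exposure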;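 on viability, T/C: 100% = DMSO vehicle control viability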
Conditions: for IC50: curve of first compound; for viability, T/C: stronger effect = lower value
Description: Combinatorial screen of targeted agents with ipatasertib and abemaciclib in multi-cell type tumor spheroids
A high-throughput screen of multi-cell type tumor spheroids was designed to identify active combinations of targeted small molecules and ipatasertib or abemaciclib. Complex spheroids include a stromal component modeled by human endothelial cells (HUVEC) and fibroblasts modeled by human mesenchymal stem cells (MSCs). The concentration ranges selected for each drug and investigational agent were based upon clinically achievable concentrations if the clinical Cmax of the agent was known.
Compounds. The drugs and investigational agents: ipatasertib (NSC767898), abemaciclib(NSC768073), selumetinib (NSC741078), trametinib (758246), adavosertib (NSC754352), everolimus (NSC733504), sapanisertib (NSC764658), vemurafenib (NSC761431), venetoclax (NSC766270), copanlisib (NSC809693), apelisib (NSC765974), palbociblib (NSC758247), vemurafenib (NSC761431), dabrafenib (NSC764134), ravoxertinib (NSC781343), BMS-387032 (NSC767048), sotorasib (NSC818433), talazoparib (NSC767125) and afursertib (NSC778305), were obtained from the National Cancer Institute (NCI) Developmental Therapeutics Program Chemical Repository. The FDA-approved anticancer drug set is available from the NCI Developmental Therapeutics Program. […] The stock solutions were prepared in dimethyl sulfoxide (DMSO, Sigma-Aldrich, St. Louis, MO, cat. D2650) at 800-fold the tested concentration and stored at -70 degrees C prior to their use. All drugs and investigational agents were tested over a range starting from a high concentration at or near the clinical Cmax and decreasing in half-log increments. If the clinical Cmax for an agent had not been determined, the highest concentration tested was 10 microM.
NCI60 Cell Culture. NCI60 cell lines were obtained from the NCI Developmental Therapeutics Program Tumor Repository. For each lot of cells, the Repository performed Applied Biosystems AmpFLSTR Identifiler testing with PCR amplification to confirm consistency with the published Identifier STR profile for each cell line. Cells were kept in continuous culture for no more than 20 passages. The optimal seeding densities for each of the cell lines at each time point assessed were determined prior to performing the concentration response studies. Briefly, the NCI60 human tumor lines were grown as monolayers in RPMI 1640 medium supplemented with 10% FBS and 2 mmol/L L-glutamine.
An additional 9 lines were from the NCI60 cell line panel including MDA-MB-231 breast carcinoma, MDA-MB-468 breast carcinoma, MCF7 breast carcinoma, Hs578T breast carcinoma, MALME-3M melanoma, SK-MEL-2 melanoma, SK-OV-3 ovarian carcinoma, DU-145 prostate carcinoma, PC-3 prostate carcinoma, all cell lines along with major genetic alterations are listed on Table 2. Pooled donor human umbilical vein endothelial cells (HUVEC, Lonza, cat. CC-2519) and human mesenchymal stem cells (hMSC, Lonza, cat. PT-2501) were purchased from Lonza (Walkersville, MD).
PDMR cell lines were grown in complete medium (DC medium): Dulbecco's modified Eagle's medium (DMEM)/F12 supplemented with 5% fetal bovine serum (FBS), 2 mM L-glutamine, 100 U/mL penicillin and 100 µg/ml streptomycin, 0.4 µg/ml hydrocortisone, 10 ng/ml epidermal growth factor (EGF) recombinant human protein, 24 µg/mL adenine, and 0.1 mg/mL primocin. During culture from frozen stock vials, PDMR cells were cultured in the same medium containing 10 µM Y-27632 (see Table 3). The PDCs were cultured in complete DMEM/F12 media without 10 microM Y-27632 dihydrochloride for at least two passages prior to the screen. The pooled donor HUVEC and hMSC were cultured in endothelial cell growth medium 2 (PromoCell, Heidelberg, Germany, cat. C-22011) and mesenchymal stem cell growth medium 2 (PromoCell, cat. C-28009), respectively. For all experiments, HUVEC and hMSC were used at passages </=5.
[…]

[1] = second compound 0.1 µM, first compound 0.0316 µM
[2] = second compound 0.1 µM, first compound 0.1 µM
[3] = second compound 0.316 µM, first compound 0.0316 µM
[4] = second compound 0.316 µM, first compound 0.1 µM
[5] = second compound 1 µM, first compound 0.0316 µM
[6] = second compound 1 µM, first compound 0.1 µM

Compound: Cn1ncc(Cl)c1-c1cc(C(=O)NC(CN)Cc2cccc(F)c2)sc1Cl (stereo not given) + CCN1CCN(Cc2ccc(Nc3ncc(F)c(-c4cc(F)c5nc(C)n(C(C)C)c5c4)n3)nc2)CC1
- IC50 (second compound 0.01 µM): 864 nM
- IC50 (second compound 0.0316 µM): 378 nM
- IC50 (second compound 0.1 µM): 76.6 nM
- IC50 (second compound 0.316 µM): < 31.6 nM
- IC50 (second compound 1 µM): < 31.6 nM
- viability, T/C (second compound 0.01 µM, first compound 0.0316 µM): 87.3%
- viability, T/C (second compound 0.01 µM, first compound 0.1 µM): 77.6%
- viability, T/C (second compound 0.01 µM, first compound 0.316 µM): 66.7%
- viability, T/C (second compound 0.01 µM, first compound 1 µM): 45.7%
- viability, T/C (second compound 0.01 µM, first compound 3.16 µM): 27.5%
- viability, T/C (second compound 0.01 µM, first compound 10 µM): 0.12%
- viability, T/C (second compound 0.0316 µM, first compound 0.0316 µM): 73.4%
- viability, T/C (second compound 0.0316 µM, first compound 0.1 µM): 64.8%
- viability, T/C (second compound 0.0316 µM, first compound 0.316 µM): 51.9%
- viability, T/C (second compound 0.0316 µM, first compound 1 µM): 36.4%
- viability, T/C (second compound 0.0316 µM, first compound 3.16 µM): 23%
- viability, T/C (second compound 0.0316 µM, first compound 10 µM): 0.11%
- viability, T/C [1]: 52.6%
- viability, T/C [2]: 52%
- viability, T/C (second compound 0.1 µM, first compound 0.316 µM): 40%
- viability, T/C (second compound 0.1 µM, first compound 1 µM): 30.2%
- viability, T/C (second compound 0.1 µM, first compound 3.16 µM): 20.4%
- viability, T/C (second compound 0.1 µM, first compound 10 µM): 0.87%
- viability, T/C [3]: 43.4%
- viability, T/C [4]: 42.7%
- viability, T/C (second compound 0.316 µM, first compound 0.316 µM): 32.9%
- viability, T/C (second compound 0.316 µM, first compound 1 µM): 30.5%
- viability, T/C (second compound 0.316 µM, first compound 3.16 µM): 26%
- viability, T/C (second compound 0.316 µM, first compound 10 µM): 0.53%
- viability, T/C [5]: 44.2%
- viability, T/C [6]: 46.3%
- viability, T/C (second compound 1 µM, first compound 0.316 µM): 43.2%
- viability, T/C (second compound 1 µM, first compound 1 µM): 38.7%
- viability, T/C (second compound 1 µM, first compound 3.16 µM): 43.6%
- viability, T/C (second compound 1 µM, first compound 10 µM): 0.79%

Compound: CC(C)n1nc(-c2ccc3oc(N)nc3c2)c2c(N)ncnc21 + CC(C)NCC(C(=O)N1CCN(c2ncnc3c2C(C)CC3O)CC1)c1ccc(Cl)cc1
- IC50 (second compound 0.1 µM): 15.1 nM
- IC50 (second compound 0.316 µM): 5.64 nM
- IC50 (second compound 1 µM): 2.25 nM
- IC50 (second compound 3.16 µM): 0.58 nM
- IC50 (second compound 10 µM): < 0.316 nM
- viability, T/C (second compound 0.1 µM, first compound 0.000316 µM): 90.9%
- viability, T/C (second compound 0.1 µM, first compound 0.001 µM): 84%
- viability, T/C (second compound 0.1 µM, first compound 0.00316 µM): 68.6%
- viability, T/C (second compound 0.1 µM, first compound 0.01 µM): 54.5%
- viability, T/C [1]: 42.5%
- viability, T/C [2]: 40.5%
- viability, T/C (second compound 0.316 µM, first compound 0.000316 µM): 86.8%
- viability, T/C (second compound 0.316 µM, first compound 0.001 µM): 69.8%
- viability, T/C (second compound 0.316 µM, first compound 0.00316 µM): 56.4%
- viability, T/C (second compound 0.316 µM, first compound 0.01 µM): 43.8%
- viability, T/C [3]: 38.6%
- viability, T/C [4]: 35.4%
- viability, T/C (second compound 1 µM, first compound 0.000316 µM): 67.4%
- viability, T/C (second compound 1 µM, first compound 0.001 µM): 59%
- viability, T/C (second compound 1 µM, first compound 0.00316 µM): 46.1%
- viability, T/C (second compound 1 µM, first compound 0.01 µM): 36.5%
- viability, T/C [5]: 31.7%
- viability, T/C [6]: 29.8%
- viability, T/C (second compound 3.16 µM, first compound 0.000316 µM): 53.3%
- viability, T/C (second compound 3.16 µM, first compound 0.001 µM): 47%
- viability, T/C (second compound 3.16 µM, first compound 0.00316 µM): 36.9%
- viability, T/C (second compound 3.16 µM, first compound 0.01 µM): 28.3%
- viability, T/C (second compound 3.16 µM, first compound 0.0316 µM): 26.1%
- viability, T/C (second compound 3.16 µM, first compound 0.1 µM): 23.3%
- viability, T/C (second compound 10 µM, first compound 0.000316 µM): 38.3%
- viability, T/C (second compound 10 µM, first compound 0.001 µM): 34.2%
- viability, T/C (second compound 10 µM, first compound 0.00316 µM): 27.1%
- viability, T/C (second compound 10 µM, first compound 0.01 µM): 18.1%
- viability, T/C (second compound 10 µM, first compound 0.0316 µM): 15.2%
- viability, T/C (second compound 10 µM, first compound 0.1 µM): 14.6%
